Measured values reported in ChEMBL document CHEMBL5614367, “Hydroxamic acid hybrids: Histone deacetylase inhibitors with anticancer therapeutic potency” (Eur J Med Chem, 2023).
Values belong to the compound of their own block, whether it stands above or below them.

Key:
[1] = test system: MOLT-4; test: Antiproliferative activity against human MOLT-4 cells; format: functional, cell-based
[2] = test system: TALL-1; test: Antiproliferative activity against human TALL-1 cells; format: functional, cell-based
[3] = test system: CCRF-HSB-2; test: Antiproliferative activity against human CCRF-HSB-2 cells; format: functional, cell-based
[4] = molecular target: T1, Protein deacetylase HDAC6 (Homo sapiens, UniProt Q9UBN7); test: Inhibition of HDAC6 (unknown origin)
T1 sequence (Q9UBN7 whole entry): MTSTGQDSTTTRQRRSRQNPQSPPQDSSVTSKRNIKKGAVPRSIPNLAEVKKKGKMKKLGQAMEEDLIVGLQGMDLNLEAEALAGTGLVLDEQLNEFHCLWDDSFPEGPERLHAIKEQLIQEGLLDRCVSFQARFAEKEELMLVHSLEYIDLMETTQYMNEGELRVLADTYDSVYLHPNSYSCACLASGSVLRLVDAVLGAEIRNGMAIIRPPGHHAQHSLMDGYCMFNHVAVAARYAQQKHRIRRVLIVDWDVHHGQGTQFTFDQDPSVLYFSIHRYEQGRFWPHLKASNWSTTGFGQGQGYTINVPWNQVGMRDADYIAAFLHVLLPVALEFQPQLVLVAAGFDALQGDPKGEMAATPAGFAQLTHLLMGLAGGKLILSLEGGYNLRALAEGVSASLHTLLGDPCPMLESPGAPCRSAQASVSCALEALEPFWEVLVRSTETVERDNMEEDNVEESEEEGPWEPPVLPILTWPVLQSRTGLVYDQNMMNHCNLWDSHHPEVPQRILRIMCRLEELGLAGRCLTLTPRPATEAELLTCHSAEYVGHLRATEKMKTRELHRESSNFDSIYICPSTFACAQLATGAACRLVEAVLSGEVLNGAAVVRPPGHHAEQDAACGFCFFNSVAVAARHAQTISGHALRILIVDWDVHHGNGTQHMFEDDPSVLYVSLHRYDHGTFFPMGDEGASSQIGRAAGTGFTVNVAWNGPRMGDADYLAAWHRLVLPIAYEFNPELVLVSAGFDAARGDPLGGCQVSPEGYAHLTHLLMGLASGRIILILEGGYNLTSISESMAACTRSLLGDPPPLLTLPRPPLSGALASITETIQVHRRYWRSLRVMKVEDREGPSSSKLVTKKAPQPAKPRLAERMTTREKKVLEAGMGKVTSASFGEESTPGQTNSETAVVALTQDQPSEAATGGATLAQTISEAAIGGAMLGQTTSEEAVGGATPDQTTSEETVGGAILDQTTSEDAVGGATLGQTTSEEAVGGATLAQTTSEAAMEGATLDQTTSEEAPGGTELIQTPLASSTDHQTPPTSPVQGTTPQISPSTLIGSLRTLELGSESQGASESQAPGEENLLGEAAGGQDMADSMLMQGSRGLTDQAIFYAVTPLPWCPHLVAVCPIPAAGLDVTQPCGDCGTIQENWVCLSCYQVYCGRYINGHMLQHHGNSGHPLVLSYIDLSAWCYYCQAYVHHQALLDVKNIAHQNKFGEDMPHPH

[5] = test system: K562; test: Antiproliferative activity against human K562 cells; format: functional, cell-based
[6] = test system: Jurkat; test: Antiproliferative activity against human Jurkat cells; format: functional, cell-based
[7] = test system: HL-60; test: Antiproliferative activity against human HL-60 cells; format: functional, cell-based
[8] = test system: HepG2; test: cells; format: functional, cell-based; conditions: Homo sapiens, HepG2, 72 h
[9] = Cytotoxicity against human HDFa cells assessed as inhibition of cell growth incubated for 72 hrs by MTT assay; format: toxicity, cell-based
[10] = test system: Huh-7; test: cells; format: functional, cell-based; conditions: Homo sapiens, Huh-7, 72 h
[11] = test system: HCT 116 TP53(-/-); test: cells; format: functional, cell-based; conditions: Homo sapiens, 72 h
[12] = test system: 518A2; test: cells; format: functional, cell-based; conditions: Homo sapiens, 518A2, 72 h
[13] = test system: HCT-116; test: cells; format: functional, cell-based; conditions: Homo sapiens, HCT-116, 72 h
[14] = molecular target: Serine/threonine-protein kinase B-raf (Homo sapiens, UniProt P15056); test: Inhibition of wild type BRAF (unknown origin)
Sequence of Serine/threonine-protein kinase B-raf (Homo sapiens, UniProt P15056) (P15056 whole entry): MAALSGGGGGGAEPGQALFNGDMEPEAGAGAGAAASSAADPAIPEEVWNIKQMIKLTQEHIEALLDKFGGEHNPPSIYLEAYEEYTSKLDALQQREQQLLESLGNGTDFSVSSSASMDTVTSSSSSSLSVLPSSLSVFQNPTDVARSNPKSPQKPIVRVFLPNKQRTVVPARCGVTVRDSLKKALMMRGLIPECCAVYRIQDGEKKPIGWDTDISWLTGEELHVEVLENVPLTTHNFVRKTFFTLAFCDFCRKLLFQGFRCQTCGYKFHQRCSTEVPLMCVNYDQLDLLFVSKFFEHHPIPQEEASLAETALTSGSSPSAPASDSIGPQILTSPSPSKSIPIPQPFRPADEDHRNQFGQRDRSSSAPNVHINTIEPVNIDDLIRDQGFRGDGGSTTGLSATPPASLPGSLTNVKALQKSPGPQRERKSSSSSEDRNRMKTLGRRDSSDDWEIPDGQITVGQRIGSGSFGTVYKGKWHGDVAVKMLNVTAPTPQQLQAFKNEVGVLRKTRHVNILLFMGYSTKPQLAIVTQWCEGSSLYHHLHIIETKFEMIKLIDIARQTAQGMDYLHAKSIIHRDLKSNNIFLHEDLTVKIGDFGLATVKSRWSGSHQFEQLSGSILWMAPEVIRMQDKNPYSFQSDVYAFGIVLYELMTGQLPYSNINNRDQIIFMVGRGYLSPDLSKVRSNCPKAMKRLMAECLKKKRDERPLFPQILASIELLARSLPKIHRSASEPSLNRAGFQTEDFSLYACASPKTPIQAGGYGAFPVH

[15] = molecular target: Serine/threonine-protein kinase B-raf (Homo sapiens, UniProt P15056, V600E); test: Inhibition of BRAF V600E mutant (unknown origin)
Sequence of Serine/threonine-protein kinase B-raf (Homo sapiens, UniProt P15056, V600E) (P15056 2-766 V600E limits assumed): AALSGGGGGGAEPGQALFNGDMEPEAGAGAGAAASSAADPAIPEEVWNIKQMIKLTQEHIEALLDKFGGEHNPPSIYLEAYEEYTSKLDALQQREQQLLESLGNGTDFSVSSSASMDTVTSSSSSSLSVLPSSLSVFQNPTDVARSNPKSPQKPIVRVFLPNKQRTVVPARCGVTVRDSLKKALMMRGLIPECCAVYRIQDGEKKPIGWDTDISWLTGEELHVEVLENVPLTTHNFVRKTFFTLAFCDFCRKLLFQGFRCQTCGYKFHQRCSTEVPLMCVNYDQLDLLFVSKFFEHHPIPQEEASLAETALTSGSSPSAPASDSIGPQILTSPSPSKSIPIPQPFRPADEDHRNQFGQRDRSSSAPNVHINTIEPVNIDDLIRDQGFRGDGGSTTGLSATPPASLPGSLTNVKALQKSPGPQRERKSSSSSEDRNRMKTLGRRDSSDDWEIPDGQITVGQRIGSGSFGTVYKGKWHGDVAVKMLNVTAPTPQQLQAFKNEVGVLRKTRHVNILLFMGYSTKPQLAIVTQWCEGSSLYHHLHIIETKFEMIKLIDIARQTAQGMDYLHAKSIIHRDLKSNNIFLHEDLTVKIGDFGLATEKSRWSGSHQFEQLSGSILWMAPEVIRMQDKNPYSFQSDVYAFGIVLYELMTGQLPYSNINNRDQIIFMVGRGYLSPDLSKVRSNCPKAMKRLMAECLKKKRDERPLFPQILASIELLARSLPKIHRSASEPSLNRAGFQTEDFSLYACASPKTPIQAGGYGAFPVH

[16] = test system: HCT-116; test: cells; conditions: Homo sapiens
[17] = molecular target: Histone deacetylase 2 (Homo sapiens, UniProt Q92769); test: Inhibition of HDAC2 (unknown origin) incubated for 30 mins by fluorescence based microplate reader analysis
Sequence of Histone deacetylase 2 (Q92769 whole entry): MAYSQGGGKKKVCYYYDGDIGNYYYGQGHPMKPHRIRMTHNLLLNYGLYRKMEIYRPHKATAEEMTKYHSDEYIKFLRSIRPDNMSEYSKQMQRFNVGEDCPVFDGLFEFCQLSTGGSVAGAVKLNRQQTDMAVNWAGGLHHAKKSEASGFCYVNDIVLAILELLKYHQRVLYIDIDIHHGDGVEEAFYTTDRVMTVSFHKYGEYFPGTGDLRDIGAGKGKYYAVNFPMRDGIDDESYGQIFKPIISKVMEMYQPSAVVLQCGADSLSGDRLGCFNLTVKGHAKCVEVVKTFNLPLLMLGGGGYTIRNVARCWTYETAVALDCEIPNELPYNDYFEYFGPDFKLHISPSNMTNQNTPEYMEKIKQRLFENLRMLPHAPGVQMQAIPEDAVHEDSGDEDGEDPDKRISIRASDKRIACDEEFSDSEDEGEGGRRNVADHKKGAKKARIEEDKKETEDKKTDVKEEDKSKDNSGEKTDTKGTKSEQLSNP

[18] = test system: Raji; test: cells; format: functional, cell-based; conditions: Homo sapiens, 72 h
[19] = test system: KYSE-30; test: cells; format: functional, cell-based; conditions: Homo sapiens, KYSE-30, 72 h
[20] = test system: A549; test: cells; format: functional, cell-based; conditions: Homo sapiens, A549, 72 h
[21] = test system: HGC-27; test: cells; format: functional, cell-based; conditions: Homo sapiens, HGC-27, 72 h
[22] = test system: TPC1; test: cells; format: functional, cell-based; conditions: Homo sapiens, TPC1, 72 h
[23] = test system: A549; test: Antitumor activity against human A549 cells xenografted in zebrafish model assessed as inhibition of cell proliferation incubated for 5 days by fluorescence microscopic analysis; format: functional, cell-based; conditions: A549, 120 h
[24] = Cytotoxicity against human CCC-HEL-1 cells assessed as inhibition of cell growth incubated for 72 hrs by MTT assay; format: toxicity, cell-based
[25] = molecular target: Histone deacetylase 3 (Homo sapiens, UniProt O15379); test: Inhibition of HDAC3 (unknown origin) incubated for 30 mins by fluorescence based microplate reader analysis
Sequence of Histone deacetylase 3 (O15379 whole entry): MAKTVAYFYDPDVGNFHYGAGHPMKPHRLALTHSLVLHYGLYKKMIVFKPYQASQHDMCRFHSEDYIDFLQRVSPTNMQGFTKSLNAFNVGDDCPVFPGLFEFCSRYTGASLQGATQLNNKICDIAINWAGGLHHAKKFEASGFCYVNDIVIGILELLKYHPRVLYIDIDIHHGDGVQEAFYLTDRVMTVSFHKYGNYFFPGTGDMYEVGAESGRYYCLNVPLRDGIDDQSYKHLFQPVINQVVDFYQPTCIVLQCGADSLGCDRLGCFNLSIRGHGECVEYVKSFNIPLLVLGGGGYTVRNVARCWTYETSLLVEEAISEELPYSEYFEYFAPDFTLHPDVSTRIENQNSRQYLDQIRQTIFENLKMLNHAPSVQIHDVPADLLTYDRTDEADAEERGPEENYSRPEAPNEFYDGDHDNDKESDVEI

[26] = Cytotoxicity against rat H9c2 cells assessed as inhibition of cell growth incubated for 72 hrs by MTT assay; format: toxicity, cell-based
[27] = test system: HL-60; test: cells; format: functional, cell-based; conditions: Homo sapiens, HL-60, 72 h
[28] = molecular target: T1, Protein deacetylase HDAC6; test: Inhibition of HDAC6 (unknown origin) incubated for 30 mins by fluorescence based microplate reader analysis
[29] = molecular target: T1, Protein deacetylase HDAC6; test: Inhibition of human recombinant HDAC6 using Fluor-de-Lys deacetylase as substrate by Spectrofluorimetry
[30] = test system: A549; test: Antiproliferative activity against human A549 cells assessed as inhibition of cell growth incubated for 48 hrs by SRB assay; format: functional, cell-based; conditions: A549, 48 h
[31] = test system: HCT-116; test: cells; format: functional, cell-based; conditions: Homo sapiens, HCT-116, 48 h
[32] = test system: MDA-MB-231; test: Antitumor activity against human MDA-MB-231 cells xenografted in BALB/c nude mouse assessed as tumor growth inhibition at 30 mg/kg/day, po measured every 3 days for 22 days relative to control; format: functional; conditions: MDA-MB-231, 528 h, time 22 day, read-out: TGI
[33] = Metabolic stability in human plasma assessed as half life by LC-MS/MS analysis; format: ADME, cell-free
[34] = Metabolic stability in human liver microsomes assessed as half life by LC-MS/MS analysis; format: ADME, Microsome
[35] = test system: MDA-MB-231; test: Antitumor activity against human MDA-MB-231 cells xenografted in BALB/c nude mouse assessed as tumor growth inhibition by measuring test to control ratio at 30 mg/kg/day, po measured every 3 days for 22 days relative to control; format: functional; conditions: time 22 day
[36] = test system: A549; test: Antiproliferative activity against human A549 cells measured after 72 hrs by MTT assay; format: functional, cell-based; conditions: A549, 72 h
[37] = test system: MCF7; test: Antiproliferative activity against human MCF7 cells measured after 72 hrs by MTT assay; format: functional, cell-based; conditions: MCF7, 72 h
[38] = molecular target: Histone deacetylase 1 (Homo sapiens, UniProt Q13547); test: Inhibition of HDAC1 (unknown origin) using Ac-peptide as substrate pretreated for 15 mins followed by substrate addition and measured after 60 mins
Sequence of Histone deacetylase 1 (Q13547 whole entry): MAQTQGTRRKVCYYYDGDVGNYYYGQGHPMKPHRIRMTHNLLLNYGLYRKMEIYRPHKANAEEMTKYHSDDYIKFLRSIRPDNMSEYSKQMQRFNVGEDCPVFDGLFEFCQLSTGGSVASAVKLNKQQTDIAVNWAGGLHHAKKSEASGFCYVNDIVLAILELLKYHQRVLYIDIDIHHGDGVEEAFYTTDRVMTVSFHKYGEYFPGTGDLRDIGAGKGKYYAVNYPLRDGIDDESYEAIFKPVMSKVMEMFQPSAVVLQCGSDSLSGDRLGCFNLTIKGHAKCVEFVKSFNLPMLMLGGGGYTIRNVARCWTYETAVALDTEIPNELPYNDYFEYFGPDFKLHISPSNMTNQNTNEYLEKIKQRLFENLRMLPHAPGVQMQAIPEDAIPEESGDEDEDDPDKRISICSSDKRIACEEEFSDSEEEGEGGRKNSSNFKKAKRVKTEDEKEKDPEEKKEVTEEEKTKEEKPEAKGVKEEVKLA

[39] = test system: HCT-116; test: Antiproliferative activity against human HCT-116 cells measured after 72 hrs by MTT assay; format: functional, cell-based; conditions: HCT-116, 72 h

SMILES: O=C(NO)c1ccc(CN(Cc2nnnn2Cc2ccccc2)C(=O)c2ccccc2C(F)(F)F)cc1
IC50 [1]: 22500 nM | IC50 [2]: 22500 nM | IC50 [3]: 22500 nM | IC50 [4]: 60 nM | IC50 [5]: 22500 nM | IC50 [6]: 22500 nM | IC50 [7]: 22500 nM

SMILES: COc1ccc(-c2ocnc2-c2cc(OC)c(OC)c(OC)c2)cc1OCCCC(=O)NO
IC50 [8]: 180 nM | IC50 at 72 h [9]: > 50000 nM | IC50 [10]: 180 nM | IC50 [4]: ~1000 nM | IC50 [11]: 180 nM | IC50 [12]: 180 nM | IC50 [13]: 180 nM

SMILES: O=C(NO)c1ccc(CNc2cccc3cc(-c4ccncc4)cnc23)cc1
IC50 [29]: 8.16 nM | IC50 [30]: 1290 nM | IC50 [31]: 1290 nM

Further lines, with some results ahead:

IC50 [14]: 1.71 nM | IC50 [4]: 15.6 nM | IC50 [15]: 1.71 nM | IC50 [16]: 310 nM
SMILES: O=C(CCCCCCNc1nccc(-c2sc(-c3ccccc3)nc2-c2cccc(NS(=O)(=O)c3c(F)cccc3F)c2F)n1)NO

IC50 [17]: 1.4 nM | IC50 [8]: 1220 nM | IC50 [18]: 1220 nM | IC50 [19]: 1220 nM | IC50 [20]: 1220 nM | IC50 [21]: 1220 nM | IC50 [22]: 1220 nM | IC50 [25]: 1.4 nM | IC50 [27]: 1220 nM | IC50 [28]: 1.4 nM
SMILES: O=C(CCCCCCC(=O)Nc1nc2c(s1)C[C@@H](NC(=O)c1cccc3ccccc13)CC2)NO
IC50 [23]: 1500 nM | IC50 at 72 h [24]: 24400 nM | IC50 at 72 h [26]: 43800 nM

half-life [33]: > 120 min | half-life [34]: 56 min
SMILES: O=C(CCCCCCC(=O)Nc1nc2ccc(OC(F)(F)F)cc2s1)NO
inhibition in vivo at 30 mg/kg/day [32]: 59% | T/C [35]: 55%

IC50 [36]: 280 nM | IC50 [37]: 280 nM | IC50 [38]: 27 nM | IC50 [39]: 280 nM
SMILES: COc1cc2c(Oc3ccc(NC(=O)C4CCN(c5ccc(F)cc5)C4=O)cc3)ccnc2cc1OCCCCCCC(=O)NO (configuration not stated)
